For eleven molecules, EC50 and IC50 results are on record in US20260306644A1, “ANTIBODY RECRUITING MOLECULES FOR THE TREATMENT OF CORONAVIRUS DISEASE-19” (priority 2023, published 2026).

For test [1], the target named is SARS-CoV-2 Spike protein (Severe acute respiratory syndrome coronavirus 2, UniProt P0DTC2). Description: Ternary binding of SARS-CoV-2 Spike protein (293T cells expressing Spike-GFP, IgG-AF647, flow cytometry). Conditions: IgG-AF647 10 μg/ml, repeat values/batches listed separately, read-out: SARS-CoV-2 Ternary binding EC50. It counts as cell-based. In general terms: In flow cytometry, cells or beads pass a laser one at a time.

Test [2] addresses T1, SARS-CoV-2 Spike Glycoprotein RBD protein (Severe acute respiratory syndrome coronavirus 2, UniProt P0DTC2).
T1 construct: SARS-CoV-2 (COVID-19) S Protein RBD, His Tag; purchased Acro Biosystems SPD-C52H3
As to the kind of experiment: Binding of biotinylated ligands to SARS-CoV-2 Spike Glycoprotein RBD protein by ELISA. Conditions: ELISA; biotinylated ligands; Spike RBD; read-out: ELISA SARS-CoV-2 Spike RBD Protein Binding EC50. Here is the method:
Materials. The binding affinity of biotinylated ligands to SARS-CoV-2 Spike Glycoprotein RBD protein was determined by ELISA. The binding assay was performed using the following steps: (1) assay plates (PE B&W Isoplate 96-well Flat Bottom, High Bindi-g - Perkin Elmer 6005580) were coated with 100 ul Anti-6× His tag antibody (Anti-6× His tag Antibody; Abcam ab15149, Mouse Monoclonal; Cambridge, UK) at 5 μg/ml in PBS, incubate 1 hour at 37° C. without shaking. The plates were washed (each wash step of this assay includes four 1-minute washes with 200 ul phosphate-buffered saline-0.05% (w/v) Tween® 20 detergent (PBST)). (2) Plates were blocked with 200 ul PBST-5% BSA (PBSTB; American Bio AB01088-00100; Canton, MA), for an hour at room temperature on a plate shaker (400 rpm). The plates were washed. […] The plates were washed. (4) Ligands were added, 100 ul at a concentration range of 0.1 mM to 100 nM in PBSTB, and incubated for 1 hour at room temperature on a plate shaker (200 RPM). The plates were washed. (5) NeutrAvidin™-HRP (Invitrogen 31030; Waltham, MA) is added, 100 ul at a dilution of 1:20,000 in PBSTB, and incubated for 1 hour at room temperature on a plate shaker (200 RPM). The plates were washed. (6) SuperSignal ELISA Pico Chemiluminescent Substrate (Thermo Scientific 37069; Waltham, MA) was added and incubated for 5 minutes at room temperature on a plate shaker (200 RPM).
(In general: An ELISA detects its analyte on a solid surface through an enzyme-linked reagent.)

The target in test [3] is T2, SARS-CoV-2 Spike A (wild-type) (Severe acute respiratory syndrome coronavirus 2, UniProt P0DTC2).
T2 construct: purchased Meso Scale Diagnostics, LLC V-PLEX SARS-CoV-2 Panel 13 (ACE2) Kit / Panel 23 (ACE2) Kit
Description: MSD ACE2 competition assay (inhibition of Spike binding with ACE2, ECL), A (wild-type). Conditions: IC50 Wild Type, Wild Type Spike.

For test [4], the system named is Spike RBD coated magnetic beads / RAW 264.7 macrophages. As to the kind of experiment: Antibody-dependent cellular phagocytosis (ADCP), RAW 264.7 macrophages and Spike RBD coated magnetic beads, flow cytometry. Conditions: 37° C., 2 hours, read-out: SARS-COV-2 ADCP EC50. Type of test: cell-based. Here is the method: The ability of the compounds to mediate antibody-dependent cellular phagocytosis (ADCP) was assessed using RAW 264.7 macrophages and Spike RBD coated magnetic beads (https://www.acrobiosystems.com/P3194-SARS-CoV-2-Spike-RBD-coupled-Magnetic-Beads.html). Spike RBD coated magnetic beads (3 ul per well) were added to each well of a round bottom 96-well plates. RAW264.7 cells (50,000 cells per well) were added to the beads. Next, the compounds were administered to predetermined final concentrations. The cell-bead mixtures were incubated at 37° C. for 2 hours. The mixtures were then analyzed by flow cytometry.

Setting [5] is: 293T cells expressing Spike-GFP.

Where “and” joins values, the source holds several entries; their conditions need not be identical. Equal entries are not always repeated. Where two headings read alike, the source gives them in different places. Positions of bridges follow the written chain, without caps; N, C: chain ends. Non-standard residues stand in square brackets, D forms with d. Residues, ends and D or L forms follow the SMILES beside them. No end group written: not given here. *: point of attachment. X1 = O=C(CCCC[C@@H]1SC[C@@H]2NC(=O)N[C@@H]21)NCCOCCOCCOCCOCCN*; Biotin = O=C1N[C@H]2[C@H](CS[C@H]2CCCCC(=O)*)N1; PEG4 = NCCOCCOCCOCCOCCC(=O)O; hCys = N[C@@H](CCS)C(=O)O; Nle = CCCC[C@H](N)C(=O)O; Aib = CC(C)(N)C(=O)O

On to `CC[C@H](C)[C@@H]1NC(=O)[C@H](Cc2c[nH]c3ccccc23)NC(=O)[C@H](CCC(=O)O)NC(=O)CSCC[C@@H](C(=O)NCCOCCOCCOCCOCCNC(=O)CCCC[C@@H]2SC[C@@H]3NC(=O)N[C@@H]32)NC(=O)[C@H](CCCCN)NC(=O)[C@H](CCCCN)NC(=O)[C@H](CCSC)NC(=O)[C@H](Cc2ccccc2)NC(=O)[C@H](CCC(=O)O)NC(=O)[C@H](Cc2ccc(O)cc2)NC(=O)[C@H]([C@@H](C)CC)NC(=O)[C@H](CC(C)C)NC(=O)[C@H](CC(=O)O)NC(=O)[C@H](CO)NC(=O)[C@H](C(C)C)NC(=O)[C@H](CCCNC(=N)N)NC(=O)[C@H](CCSC)NC(=O)[C@H](CO)NC(=O)[C@H](C)NC(=O)[C@H](CCC(=O)O)NC(=O)[C@H](C)NC(=O)[C@H](Cc2c[nH]cn2)NC(=O)CNC(=O)[C@H](CC(C)C)NC(=O)[C@H](CCC(=O)O)NC(=O)[C@H](CC(=O)O)NC(=O)[C@H](CC(C)C)NC(=O)[C@H](CC(C)C)NC(=O)[C@H](CCCNC(=N)N)NC(=O)[C@H](CCSC)NC(=O)[C@H]([C@@H](C)CC)NC(=O)[C@H](CCC(=O)O)NC(=O)[C@H](Cc2ccc(O)cc2)NC(=O)[C@H]([C@@H](C)CC)NC(=O)[C@H](CCCCN)NC(=O)[C@H](CCC(N)=O)NC(=O)[C@H](CC(C)C)NC1=O` [Compound 251] ({CH2CO}-EWILQKIYEIMRLLDELGHAEASMRVSDLIYEFMKK[hCys]-X1; thioether N-37), for which the EC50 (commonly the concentration at which the effect is half-maximal) in test [1] (setting [5]) came out at 0.08 nM; in test [2], 0.92 nM.

Take “Ac-DKEWILQKIYEIMRLLDELGHAEASMRVSDLIYEFMKKGDERLLEEAERLLEEVERGGGGGGDCAWHLGELVWCT-NH2 (disulfide 64-74) [Compound 143]”: the values for the EC50 in test [1] (setting [5]) and in test [4] were 0.05 nM and 0.75 nM, respectively. Moreover, in test [3], the IC50 – broadly, the point on the concentration scale where inhibition reaches its midpoint – turned out to be 1.35 nM.

As for “Ac-DKEWILQKIYEIMRLLDELGHAEASMRVSDLIYEFMKKGDERLLEEAERLLEEVERGQAPGQAPDCAWHLGELVWCT-NH2 (disulfide 66-76) [Compound 147]”, the values for the EC50 in test [1] ([…]) and in test [4] were 0.02 nM and 0.43 nM, respectively. The same molecule yielded an IC50 in test [3] of 1.35 nM.

As to `CC[C@H](C)[C@H](NC(=O)[C@H](CC(C)C)NC(=O)[C@H](CC(=O)O)NC(=O)[C@H](CO)NC(=O)[C@@H]1CSSC[C@H](NC(=O)[C@@H](NC(=O)[C@H](CCC(=O)O)NC(=O)[C@H](Cc2ccc(O)cc2)NC(=O)[C@@H](NC(=O)[C@H](CCCCN)NC(=O)[C@H](CCC(N)=O)NC(=O)[C@H](CC(C)C)NC(=O)[C@@H](NC(=O)[C@H](Cc2c[nH]c3ccccc23)NC(=O)[C@H](CCC(=O)O)NC(=O)[C@H](CCCCN)NC(=O)[C@H](CC(=O)O)NC(=O)CCOCCOCCOCCOCCNC(=O)CCCC[C@@H]2SC[C@@H]3NC(=O)N[C@@H]32)[C@@H](C)CC)[C@@H](C)CC)[C@@H](C)CC)C(=O)N[C@@H](CCCNC(=N)N)C(=O)N[C@@H](CC(C)C)C(=O)N[C@@H](CC(C)C)C(=O)N[C@@H](CC(=O)O)C(=O)N[C@@H](CCC(=O)O)C(=O)N[C@@H](CC(C)C)C(=O)NCC(=O)N[C@@H](Cc2c[nH]cn2)C(=O)N[C@@H](C)C(=O)N[C@@H](CCC(=O)O)C(=O)N[C@@H](C)C(=O)N[C@@H](CO)C(=O)N[C@@H](CCSC)C(=O)N[C@@H](CCCNC(=N)N)C(=O)N1)C(=O)N[C@@H](Cc1ccc(O)cc1)C(=O)N[C@@H](CCC(=O)O)C(=O)N[C@@H](Cc1ccccc1)C(=O)N[C@@H](CCSC)C(=O)N[C@@H](CCCCN)C(=O)N[C@@H](CCCCN)C(=O)NCC(=O)O` [Compound 181] ({Biotin-PEG4}-DKEWILQKIYEICRLLDELGHAEASMRCSDLIYEFMKKG-OH; disulfide 13-28), the concentration giving a half-maximal response (EC50) was 0.77 nM and < 0.3 nM in test [1] (setting [5]); 2.1 nM and 3.1 nM in test [4]. This molecule had an IC50 in test [3] of 2.51 nM.

On to `CC[C@H](C)[C@H](NC(=O)[C@H](CC(C)C)NC(=O)[C@H](CC(=O)O)NC(=O)[C@H](CO)NC(=O)[C@@H](NC(=O)[C@H](CCCNC(=N)N)NC(=O)[C@H](CCSC)NC(=O)[C@H](CO)NC(=O)[C@H](C)NC(=O)[C@H](CCC(=O)O)NC(=O)[C@H](C)NC(=O)[C@H](Cc1c[nH]cn1)NC(=O)CNC(=O)[C@H](CC(C)C)NC(=O)[C@H](CCC(=O)O)NC(=O)[C@H](CC(=O)O)NC(=O)[C@H](CC(C)C)NC(=O)[C@H](CC(C)C)NC(=O)[C@H](CCCNC(=N)N)NC(=O)[C@H](CCSC)NC(=O)[C@@H](NC(=O)[C@H](CCC(=O)O)NC(=O)[C@H](Cc1ccc(O)cc1)NC(=O)[C@@H](NC(=O)[C@H](CCCCN)NC(=O)[C@H](CCC(N)=O)NC(=O)[C@H](CC(C)C)NC(=O)[C@@H](NC(=O)[C@H](Cc1c[nH]c2ccccc12)NC(=O)[C@H](CCC(=O)O)NC(=O)[C@H](CCCCN)NC(=O)[C@H](CC(=O)O)NC(=O)[C@H](CO)NC(=O)C(C)(C)NC(=O)CCOCCOCCOCCOCCNC(=O)CCCC[C@@H]1SC[C@@H]2NC(=O)N[C@@H]21)[C@@H](C)CC)[C@@H](C)CC)[C@@H](C)CC)C(C)C)C(=O)N[C@@H](Cc1ccc(O)cc1)C(=O)N[C@@H](CCC(=O)O)C(=O)N[C@@H](Cc1ccccc1)C(=O)N[C@@H](CCSC)C(=O)N[C@@H](CCCCN)C(=O)N[C@@H](CCCCN)C(=O)N[C@H](C)C(=O)O` [Compound 214], for which the EC50 in test [2] amounted to 0.78 nM.

As for “Ac-DKEWILQKIYEIMRLLDELGHAEASMRVSDLIYEFMKKGDERLLEEAERLLEEVERGGDCAWHLGELVWCT-NH2 (disulfide 60-70) [Compound 145]”, the results for the EC50 in test [1] (setting [5]) and in test [4] were 0.04 nM and 0.52 nM, respectively. In addition, in test [3], the IC50 worked out at 0.97 nM.

As for “Ac-DKEWILQKIYEIMRLLDELGHAEASMRVSDLIYEFMKKGDERLLEEAERLLEEVERGGGGGGGGDCAWHLGELVWCT-NH2 (disulfide 66-76) [Compound 142]”, the figures for the EC50 in test [1] (setting [5]) and in test [4] were 0.05 nM and 0.6 nM, respectively. For the same molecule, the IC50 in test [3] came to 1.35 nM.

“DKEWILQKIYEIMRLLDELGHAEASMRVSDLIYEFMKKGDERLLEEAERLLEEVERGGGGGGDCAWHLGELVWCT-NH2 (disulfide 64-74) [Compound 170]”: the EC50 in test [1] (setting [5]) worked out at 0.02 nM; in test [4] it was 0.95 nM. Also, in test [3], the IC50 stood at 1.52 nM.

“{Biotin-PEG4}-[Aib]SDKEWILQKIYEI[Nle]RLLDELGHAEAS[Nle]RVSDLIY[Aib]FMK[Aib]G [Compound 220]”: the EC50 in test [2] worked out at 2.55 nM.

For the molecule “DKEWILQKIYEIMRLLDELGHAEASMRVSDLIYEFMKKGDERLLEEAERLLEEVERGGDCAWHLGELVWCT-NH2 (disulfide 60-70) [Compound 172]”, the EC50 amounted to 0.02 nM in test [1] (setting [5]) and 0.87 nM in test [4]. The IC50 in test [3] was found to be 1.05 nM.

For the molecule “DKEWILQKIYEIMRLLDELGHAEASMRVSDLIYEFMKKGDERLLEEAERLLEEVERGQAPGQAPDCAWHLGELVWCT-NH2 (disulfide 66-76) [Compound 174]”, the EC50 in test [1] ([…]) came to 0.14 nM; in test [4], 0.044 nM. The molecule further registered a concentration for half-maximal inhibition (IC50) in test [3] of 1.4 nM.
